The values below come from paper PMC11323500, “Functional redundancy of ubiquitin-like sulfur-carrier proteins facilitates flexible, efficient sulfur utilization in the primordial archaeon Thermococcus kodakarensis” (mBio, 2024).

The test has as its target T1, TK2117 (with TK2118 / UblB) (Thermococcus kodakarensis, UniProt Q5JEX2).
T1 construct: tag removal not mentioned; with Ubiquitin-like sulfur-carrier protein UblB (MoaD family)
T1 sequence (Q5JEX2 1-232): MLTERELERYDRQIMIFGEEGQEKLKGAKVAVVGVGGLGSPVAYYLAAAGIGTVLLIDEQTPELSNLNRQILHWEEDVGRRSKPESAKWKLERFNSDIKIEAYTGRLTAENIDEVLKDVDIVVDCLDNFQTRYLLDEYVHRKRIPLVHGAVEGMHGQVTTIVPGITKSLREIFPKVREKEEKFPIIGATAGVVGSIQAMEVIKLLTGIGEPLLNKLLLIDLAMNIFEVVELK
T1 sequence (Q5JEX1 1-88 partner): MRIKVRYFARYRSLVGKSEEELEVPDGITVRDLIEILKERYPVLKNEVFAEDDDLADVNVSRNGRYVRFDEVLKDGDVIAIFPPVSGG
The test can be described thus: pyrophosphate release measured as phosphate (Biomol Green, inorganic pyrophosphatase). Format: biochemical. To be noted: 10 mM ATP; 5 mM MgCl2; 4.0 µM TK2117; 10.0 µM TK2118 as co-substrate; pH 8.0; 80 °C.

With `Nc1ncnc2c1ncn2[C@@H]1O[C@H](COP(=O)(O)OP(=O)(O)OP(=O)(O)O)[C@@H](O)[C@H]1O` [ATP], the “pyrophosphate release measured as phosphate (Biomol Green, inorganic pyrophospha)” value is recorded as “TK2117 formed pyrophosphate in the presence of TK2118”.
